The source made the active and inactive calls.
Experiments:
[1] = Trypanosoma cruzi growth suppression in host cells – NIH3T3 host cells, beta-gal luminescence, confirmation (AID 2044); assay type: functional, cell-based;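 note: intracellular parasites grown in NIH/3T3 mouse fibroblasts as host cells; luminescent beta-galactosidase reporter signal from transgenic T. cruzi replicating inside host cells; inhibitors lower the luminescence signal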
[2] = target: T1, COUP transcription factor 2 (Homo sapiens, UniProt P24468); experiment: Luminescence-based cell-based high throughput dose response assay to identify inhibitors of COUP-TFII (NR2F2).; assay type: functional;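 note: HEK293 cells transiently cotransfected with COUP-TFII expression vector and reporter; luciferase reporter luminescence driven by COUP-TFII from the pX2-168 reporter plasmid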
T1 sequence (P24468 whole entry): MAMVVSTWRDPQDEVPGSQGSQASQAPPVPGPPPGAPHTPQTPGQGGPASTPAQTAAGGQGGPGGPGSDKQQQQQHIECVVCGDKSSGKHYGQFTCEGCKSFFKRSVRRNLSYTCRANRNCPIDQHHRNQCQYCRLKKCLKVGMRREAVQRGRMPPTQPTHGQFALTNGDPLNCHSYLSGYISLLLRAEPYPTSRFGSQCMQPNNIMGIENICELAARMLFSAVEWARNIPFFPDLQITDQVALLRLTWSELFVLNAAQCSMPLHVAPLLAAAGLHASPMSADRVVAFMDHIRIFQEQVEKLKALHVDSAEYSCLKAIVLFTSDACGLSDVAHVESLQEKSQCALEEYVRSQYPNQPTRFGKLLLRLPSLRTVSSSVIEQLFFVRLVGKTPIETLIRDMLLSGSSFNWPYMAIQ

[3] = fluconazole-exposed Candida albicans growth modulators – fluorescence, retest, confirmation (AID 2467); assay type: functional, cell-based
[4] = NIH3T3 cell viability loss – ATP luminescence, mouse fibroblasts, counter-screen, dose response (AID 2010); assay type: functional, cell-based;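 note: cells exposed to compound for about 90 hours before reading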
Jurkat = experiment: blockers of NF-kB activation in T cells – Jurkat, luciferase reporter, luminescence, B- and T-cell, dose response (AID 489004); assay type: functional, cell-based; settings: Homo sapiens;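 note: NF-kB luciferase reporter Jurkat cells stimulated with PMA plus ionomycin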
[5] = target: T2, Microphthalmia-associated transcription factor (Homo sapiens, UniProt O75030); experiment: reducers of TRPM1 reporter luminescence, concentration series – cell-based, SK-MEL-5, cherry-picked, set 3, MITF inhibitor project, dose response (AID 493073); assay type: functional;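 note: SK-MEL-5 melanoma cells with luciferase driven by the MITF target TRPM1 promoter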
T2 sequence (O75030 whole entry): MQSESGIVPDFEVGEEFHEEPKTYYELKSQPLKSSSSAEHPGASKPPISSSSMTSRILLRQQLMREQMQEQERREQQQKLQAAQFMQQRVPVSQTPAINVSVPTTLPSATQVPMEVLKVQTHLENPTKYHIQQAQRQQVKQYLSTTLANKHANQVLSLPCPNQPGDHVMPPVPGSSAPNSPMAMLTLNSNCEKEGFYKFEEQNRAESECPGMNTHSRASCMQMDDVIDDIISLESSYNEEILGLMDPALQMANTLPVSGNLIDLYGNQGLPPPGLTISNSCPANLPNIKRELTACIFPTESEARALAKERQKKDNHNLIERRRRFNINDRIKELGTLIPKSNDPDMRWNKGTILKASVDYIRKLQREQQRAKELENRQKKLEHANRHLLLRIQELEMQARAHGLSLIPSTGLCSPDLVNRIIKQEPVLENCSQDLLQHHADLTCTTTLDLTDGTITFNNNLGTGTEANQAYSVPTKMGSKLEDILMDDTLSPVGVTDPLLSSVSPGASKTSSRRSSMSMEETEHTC

INS1 = experiment: INS-1E survival protection against cytokine death – cell-based, luminescence, retest, dose response (AID 449756); assay type: functional; settings: Rattus norvegicus;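 note: cell death triggered by IL-1 beta plus TNF-alpha plus IFN-gamma mixture; protective hits raise ATP signal compared with cytokine alone wells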
[6] = HEK-293T viability loss, compound-treated – cell-based, uHTS hits, cytotoxicity control for B/T-cell NF-kB inhibitor project, dose response (AID 489019); assay type: functional;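 note: IC50 reflects cytotoxicity as loss of cell viability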
[7] = NIH-3T3 fibroblast cytotoxicity, dose response, cytotoxicity control, cell-based, fluorescence, Alamar Blue, secondary assay (AID 2327); assay type: functional;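 note: NIH-3T3 mouse fibroblasts cultured with fluconazole at 8 µg/mL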
Estrogen receptor = target: T3, Estrogen receptor (Homo sapiens, UniProt P03372);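 note: potency for inhibiting coactivator peptide recruitment to the receptor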
T3 sequence (P03372 whole entry): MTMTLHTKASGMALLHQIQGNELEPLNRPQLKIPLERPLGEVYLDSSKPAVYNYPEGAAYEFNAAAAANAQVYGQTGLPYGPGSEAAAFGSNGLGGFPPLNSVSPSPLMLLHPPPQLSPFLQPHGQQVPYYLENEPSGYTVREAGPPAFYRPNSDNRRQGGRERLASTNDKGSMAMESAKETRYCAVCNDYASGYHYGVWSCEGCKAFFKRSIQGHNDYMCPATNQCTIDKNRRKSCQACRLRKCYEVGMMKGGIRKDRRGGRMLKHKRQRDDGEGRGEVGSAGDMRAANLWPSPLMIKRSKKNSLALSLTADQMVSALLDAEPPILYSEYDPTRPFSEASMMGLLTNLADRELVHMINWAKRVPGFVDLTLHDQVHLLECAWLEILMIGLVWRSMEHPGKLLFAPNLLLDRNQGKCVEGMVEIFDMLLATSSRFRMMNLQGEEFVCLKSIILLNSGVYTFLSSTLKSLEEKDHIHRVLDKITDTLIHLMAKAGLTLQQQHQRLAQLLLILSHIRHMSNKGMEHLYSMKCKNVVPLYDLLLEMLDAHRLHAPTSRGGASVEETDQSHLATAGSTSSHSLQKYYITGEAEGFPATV

[8] = viability of PTEN-deleted HCT116 cells – cell-based, HCT116 PTEN knockout, dose response (AID 1047); assay type: functional;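 note: HCT116 colon tumor cells with PTEN knocked out; cells exposed to compound for 60 hours before readout; potency for loss of cell viability measured by luminescence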
[9] = target: Sphingosine 1-phosphate receptor 2 (Homo sapiens, UniProt O95136); experiment: Dose Response Cell Based Assay for Agonists of the S1P2 Receptor. [Related pubchem assays: 729, 736, 843 ]; assay type: functional
Sphingosine 1-phosphate receptor 2, sequence (O95136 whole entry): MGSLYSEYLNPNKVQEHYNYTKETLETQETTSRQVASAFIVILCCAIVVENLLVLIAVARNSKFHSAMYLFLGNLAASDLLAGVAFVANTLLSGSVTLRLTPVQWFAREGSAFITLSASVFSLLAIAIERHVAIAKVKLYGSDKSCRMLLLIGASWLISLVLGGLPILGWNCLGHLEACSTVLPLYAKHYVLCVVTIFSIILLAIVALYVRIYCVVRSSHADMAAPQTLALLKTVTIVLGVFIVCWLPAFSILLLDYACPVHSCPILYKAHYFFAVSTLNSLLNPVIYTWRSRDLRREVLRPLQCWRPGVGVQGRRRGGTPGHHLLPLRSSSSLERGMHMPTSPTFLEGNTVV

[10] = viability of HCT116 lacking mutant beta-catenin – cell-based, human colon tumor, dose response (AID 1045); assay type: functional;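 note: HCT116 colon tumor cells with beta catenin knocked out; cells exposed to compound for 60 hours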
Protein RecA = target: T4, Protein RecA (Mycobacterium tuberculosis, UniProt P9WHJ3); experiment: Fluorescence Cell-Free Homogeneous Dose Retest to Identify Inhibitors of RecA-Intein Splicing Activity. [Related pubchem assays (depositor defined):AID2097, AID2223, AID489010, AID492950]; assay type: functional
T4 sequence (P9WHJ3 whole entry): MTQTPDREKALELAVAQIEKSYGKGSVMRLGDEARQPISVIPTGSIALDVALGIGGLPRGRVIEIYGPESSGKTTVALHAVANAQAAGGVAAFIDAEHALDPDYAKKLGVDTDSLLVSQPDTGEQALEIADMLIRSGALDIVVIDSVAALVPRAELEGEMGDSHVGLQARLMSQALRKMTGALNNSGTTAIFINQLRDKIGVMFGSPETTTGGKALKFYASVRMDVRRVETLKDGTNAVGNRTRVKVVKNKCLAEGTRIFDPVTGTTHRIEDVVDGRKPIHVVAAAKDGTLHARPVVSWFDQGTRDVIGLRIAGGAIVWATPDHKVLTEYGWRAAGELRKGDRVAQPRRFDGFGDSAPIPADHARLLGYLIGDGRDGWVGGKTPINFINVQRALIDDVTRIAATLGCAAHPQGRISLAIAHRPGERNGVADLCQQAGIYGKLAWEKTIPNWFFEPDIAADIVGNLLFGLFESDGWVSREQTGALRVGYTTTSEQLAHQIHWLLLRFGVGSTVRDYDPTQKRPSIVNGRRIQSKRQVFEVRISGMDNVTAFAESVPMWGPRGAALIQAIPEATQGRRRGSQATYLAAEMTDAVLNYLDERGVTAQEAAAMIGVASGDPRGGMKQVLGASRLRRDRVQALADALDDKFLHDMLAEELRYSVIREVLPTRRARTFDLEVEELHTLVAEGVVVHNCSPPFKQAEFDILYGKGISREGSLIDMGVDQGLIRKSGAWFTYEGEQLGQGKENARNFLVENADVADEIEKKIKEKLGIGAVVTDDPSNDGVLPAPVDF

[11] = M. tuberculosis H37Rv growth inhibitors, H37Rv strain (AID 1626); assay type: functional
[12] = target: T5, RNA-binding protein pos-1 (Caenorhabditis elegans, UniProt G5EF15); experiment: disruptors of C. elegans POS-1 RNA interaction – biochemical, fluorescence polarization, dose response (AID 1964);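 note: purified POS-1 fused to maltose binding protein made in E. coli; potency of compounds blocking POS-1 binding to fluorescent RNA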
T5 sequence (G5EF15 whole entry): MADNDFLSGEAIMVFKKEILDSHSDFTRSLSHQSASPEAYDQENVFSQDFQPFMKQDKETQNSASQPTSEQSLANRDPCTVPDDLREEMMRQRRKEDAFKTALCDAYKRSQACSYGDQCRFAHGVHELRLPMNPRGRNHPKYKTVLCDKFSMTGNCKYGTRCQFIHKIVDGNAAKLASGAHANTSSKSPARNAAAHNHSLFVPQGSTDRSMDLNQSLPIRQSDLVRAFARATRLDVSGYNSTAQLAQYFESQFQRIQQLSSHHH

[13] = target: T6, Zinc finger protein mex-5 (Caenorhabditis elegans, UniProt Q9XUB2); experiment: potency of MEX-5 RNA-binding blockers – biochemical, C. elegans, fluorescence polarization, dose response (AID 1960)
T6 sequence (Q9XUB2 whole entry): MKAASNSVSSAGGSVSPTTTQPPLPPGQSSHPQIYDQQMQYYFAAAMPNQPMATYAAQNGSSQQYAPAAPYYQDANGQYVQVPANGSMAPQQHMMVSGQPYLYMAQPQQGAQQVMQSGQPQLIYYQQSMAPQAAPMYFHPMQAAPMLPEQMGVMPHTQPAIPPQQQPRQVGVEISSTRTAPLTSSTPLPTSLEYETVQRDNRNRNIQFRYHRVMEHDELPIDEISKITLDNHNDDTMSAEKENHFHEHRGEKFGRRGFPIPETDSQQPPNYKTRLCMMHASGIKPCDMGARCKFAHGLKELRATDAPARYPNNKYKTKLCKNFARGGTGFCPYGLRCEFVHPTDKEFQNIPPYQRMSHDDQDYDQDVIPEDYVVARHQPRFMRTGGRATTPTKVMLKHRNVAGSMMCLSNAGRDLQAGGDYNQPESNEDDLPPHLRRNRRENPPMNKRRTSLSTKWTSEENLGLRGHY

[14] = antiviral protection against BTV-induced cell death – arbovirus, BSR cells, confirmation (AID 1250); assay type: functional;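 note: protection from viral cytopathic effect measured as cell viability by ATP luminescence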
[15] = Luminescence Cell-Based Dose Confirmation HTS to Identify Inhibitors of Platelet Dense Granule Release. [Related pubchem assays: 1663 (Primary HTS), 1678 (Summary of Project)]; assay type: functional
[16] = target: Luciferin 4-monooxygenase (Photinus pyralis, UniProt P08659); experiment: inhibition of purified Photinus pyralis luciferase – biochemical, luminescence, dose response (AID 1891)
Luciferin 4-monooxygenase, sequence (P08659 whole entry): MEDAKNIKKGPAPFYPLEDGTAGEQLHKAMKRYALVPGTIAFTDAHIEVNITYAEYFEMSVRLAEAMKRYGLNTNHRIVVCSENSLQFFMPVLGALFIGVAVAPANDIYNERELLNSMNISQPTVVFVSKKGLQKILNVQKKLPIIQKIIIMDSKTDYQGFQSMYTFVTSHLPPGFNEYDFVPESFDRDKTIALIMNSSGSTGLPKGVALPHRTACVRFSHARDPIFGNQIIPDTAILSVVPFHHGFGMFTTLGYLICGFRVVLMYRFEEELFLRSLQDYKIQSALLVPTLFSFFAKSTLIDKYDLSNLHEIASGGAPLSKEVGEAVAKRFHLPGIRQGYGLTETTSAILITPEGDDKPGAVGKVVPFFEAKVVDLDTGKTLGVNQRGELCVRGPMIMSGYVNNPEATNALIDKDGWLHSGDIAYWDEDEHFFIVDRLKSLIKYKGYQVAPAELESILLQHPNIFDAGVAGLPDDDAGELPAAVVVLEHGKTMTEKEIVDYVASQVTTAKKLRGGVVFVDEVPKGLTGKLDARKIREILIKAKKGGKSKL

[17] = target: T7, Heat shock factor protein 1 (Mus musculus, UniProt P38532); experiment: enhancement of HSF1-driven luciferase signal – cell-based, NIH3T3, luminescence, dose retest, confirmation (AID 435004); assay type: functional;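 note: stress induced by proteasome inhibitor MG132 added 30 min after compound; luciferase reporter driven by HSF1 response element in NIH3T3 cells; actives raise luminescence as potentiators of the MG132 stress response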
T7 sequence (P38532 whole entry): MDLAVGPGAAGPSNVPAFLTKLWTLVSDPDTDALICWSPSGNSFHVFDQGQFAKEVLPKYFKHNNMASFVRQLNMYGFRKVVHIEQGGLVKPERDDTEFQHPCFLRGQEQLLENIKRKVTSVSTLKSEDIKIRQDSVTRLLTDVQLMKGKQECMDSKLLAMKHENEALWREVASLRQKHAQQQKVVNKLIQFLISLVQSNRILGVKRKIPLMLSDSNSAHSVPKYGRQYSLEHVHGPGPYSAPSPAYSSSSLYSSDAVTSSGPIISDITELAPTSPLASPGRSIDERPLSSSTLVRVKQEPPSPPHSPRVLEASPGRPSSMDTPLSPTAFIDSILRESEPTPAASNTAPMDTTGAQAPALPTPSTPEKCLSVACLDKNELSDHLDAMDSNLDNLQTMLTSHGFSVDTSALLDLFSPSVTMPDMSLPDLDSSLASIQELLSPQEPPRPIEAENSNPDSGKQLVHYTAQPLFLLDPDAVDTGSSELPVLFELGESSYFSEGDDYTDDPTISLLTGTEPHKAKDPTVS

[18] = target: FAD-linked sulfhydryl oxidase ALR (Homo sapiens, UniProt P55789); experiment: ALR-catalysed DTT oxidation blockers – biochemical, H2O2 detection, luminescence, cherry-pick, dose response (AID 493248)
FAD-linked sulfhydryl oxidase ALR, sequence (P55789 whole entry): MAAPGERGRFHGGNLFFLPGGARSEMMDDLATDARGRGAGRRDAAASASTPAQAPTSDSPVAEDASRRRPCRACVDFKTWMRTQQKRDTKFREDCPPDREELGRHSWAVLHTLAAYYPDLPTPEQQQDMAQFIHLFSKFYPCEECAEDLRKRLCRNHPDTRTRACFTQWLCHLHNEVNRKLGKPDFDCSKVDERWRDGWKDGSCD

## CN(C)c1cc[n+](CC(=O)c2ccc(-c3ccccc3)cc2)cc1
[1]
  EC50: 0.515 µM (active)
[2]
  IC50: 10.2 µM (inactive)
[3]
  EC50: 2 µM (active)
[4]
  EC50: > 60 µM (not active)
Jurkat
  IC50: 4.41 µM (active)
[5]
  AC50: 2.6 µM (active)
INS1
  AC50: 1.55 µM (active)
[6]
  IC50: > 80 µM (inactive)
[7]
  EC50: > 160 µM (inactive)

## COC(=O)c1ccc2c(=O)n(CC3CCCO3)c(SCC(=O)Nc3ccccc3Cl)nc2c1 (stereo unspecified)
Estrogen receptor
  IC50: 20.9 µM (active)

## CCC(C)NC(=O)c1c(N)n(Cc2ccc3c(c2)OCO3)c2nc3ccccc3nc12 (stereo unspecified)
[8]
  EC50: 15.3 µM (active)
[9]
  EC50: 2.41 µM (active)
[10]
  EC50: 14.2 µM (active)
Protein RecA
  EC50: > 380 µM (inconclusive)

## CC(=O)c1c(C)n(C)c2ccc(O)cc12
[11]
  IC50: > 100 µM (active)

## CC(C)CC1=NN2C(=N)/C(=C/c3c[nH]c4ccccc34)C(=O)N=C2S1
[12]
  EC50: 34.2 µM (inconclusive)
[13]
  EC50: 47.4 µM (active)
[14]
  IC50: 32.1 µM (active)

## COc1cc(-c2cc(C(=O)Nc3nc4ccccc4s3)c3ccccc3n2)cc(OC)c1OC
[11]
  IC50: > 100 µM (active)

## O=C1CCCC(=O)C1=CNCCc1ccccc1
[15]
  EC50: > 112 µM (not active)
[9]
  EC50: > 50 µM (not active)
[16]
  EC50: > 112 µM (not active)

## COc1ccc(/C=C/C(O)=C2/C(=O)N(C)C3(C)CC2c2ccccc2O3)cc1 (stereo unspecified)
[8]
  EC50: 10.7 µM (active)
Estrogen receptor
  IC50: > 50 µM (not active)
[10]
  EC50: 8.06 µM (active)
[17]
  EC50: > 260 µM (inactive)

## COC(=O)c1oc2ccc(Br)cc2c1NC(=O)CCCN1C(=O)c2ccccc2C1=O
Estrogen receptor
  IC50: 42.3 µM (not active)

## COc1ccc2cc(S(=O)(=O)NCCCN3CCOCC3)ccc2c1
[9]
  EC50: > 50 µM (not active)

## CCOC(=O)/C=C/C(=O)Nc1nccs1
[11]
  IC50: > 100 µM (active)

## Cc1cccc(C(=O)Nc2scc(CC(C)C)c2C(=O)O)c1
[18]
  AC50: 0.016 µM (active)
[14]
  IC50: 32.3 µM (active)

Reference: ChEMBL document CHEMBL1201862, “PubChem BioAssay data set” (2004)
